Earlier results as cited in patent publication US20200383964A1, “MITOCHONDRIA TARGETING, MPTP REGULATION, AND THE REDUCTION OF MITOCHONDRIAL REACTIVE SPECIES” (priority 2017, published 2020).

Test system: mitochondrial permeability transition pore (MPTP)

CC(=O)C=O [Methylglyoxal, methylglyoxal]
suppression of permeability transition (incubation with isolated mitochondria, covalent binding to the MPTP): complete suppression
time to suppression of the permeability transition (isolated mitochondria): ≤ 5 min
